Assay results published in article PMC10046862, “Screening of EWI-2-Derived Peptides for Targeting Tetraspanin CD81 and Their Effect on Cancer Cell Migration” (Biomolecules, 2023).
“Also recorded” adds a separate entry of the source.

Columns and labels:
[1] = tested on: Recombinant CD81 human protein (LEL Phe113-Lys201); assay: Binding assay between EWI-2 peptide array and Alexa Fluor 488-labeled CD81 (screening); conditions: 500 nM labeled CD81, room temperature, 3 h, 3% BSA block; blank-subtracted; fluorescence scan; n = 3
Description: The peptide array was prepared similarly to the method described in previous reports. A peptide library of eight-residue peptides was obtained by overlapping four residues from Ig3 to the C-terminus of human EWI-2 (accession number: Q969P0) (Table S1). Next, the EWI-2 peptide array was synthesized on a Fmoc-β-Alanine-activated cellulose membrane using Fmoc-based chemistry. The synthesis cycle was initiated by deprotecting the N-terminal Fmoc group with 20% piperidine in DMF and then washing it with DMF and EtOH, respectively. […]
The Alexa Fluor™ 488 protein labeling kit (Thermo Fisher Scientific, Waltham, MA, USA) was applied to fluorescently label the CD81 protein. […] The concentration of the labeled CD81 protein solution was finally quantified using a Bradford protein assay kit (Takara Bio Inc., Shiga, Japan).
First, to reduce nonspecific interactions, the peptide array was blocked by 3% BSA in Tris–HCl buffer at room temperature for 15 min, followed by membrane washing with Tris–HCl buffer. […] Finally, the membrane was fluorescence-scanned and imaged by a biomolecular imager (Typhoon FLA 9500; GE Healthcare, Hatfield, UK), before the spot intensity of each peptide was measured using GE Healthcare’s ImageQuant TL 8.1 software.

[2] = tested on: MDA-MB-231 human breast cancer cells; assay: Boyden chamber assay (CytoSelect 96-well cell migration); assay type: cell-based; conditions: 100 nM, 37 °C, n = 3; for Migration of MDA-MB-231 cells vs non-treatment: 24 h (1 h pre-incubation), 5% CO2, CyQuant GR fluorescence, t-test p < 0.05; for Anti-migration activity, P152 vs scrambled peptides: t-test, comparison with scrambled P152-1 and P152-2 (Figure 5)
Description: A Boyden chamber assay was performed using the CytoSelect™ 96-well cell migration assay kit (8 µm, Fluorometric Format, Cat. No. CBA-106; Cell Biolabs, Inc., San Diego, CA, USA). Human breast cancer MDA-MB-231 cells (HTB-26TM; American Type Culture Collection, Manassas, VA, USA) were suspended in serum-free D-MEM medium (1.85 × 10^5 cells/mL) containing 100 nM CD81-BP, AAAA or CD81 antibody (5A6) at 37 °C and 5% CO2 for 1 h. Then, within the Boyden chamber, 100 µL of the serum-free cell suspension was added to the upper chamber, while 150 µL of 10% FBS-containing medium was placed in the lower chamber. After incubation at 37 °C and 5% CO2 for 24 h, the cells that migrated to the lower chamber were detached from the membrane by cell detachment buffer, lysed by lysis buffer, and stained with CyQuant® GR dye. The fluorescence intensity of the cell lysate was analyzed at 480/520 nm by a microplate reader (Biomedical Solutions, Inc., Stafford, TX, USA).
The experiment was performed with at least three replicates. The t-test was performed using Prism 9 (GraphPad Software, Inc., La Jolla, CA, USA) or Microsoft Excel (Microsoft, WA, USA) to analyze the statistical significance difference. The statistical significance was set at p-value < 0.05.

[3] = target: T1, Recombinant CD81 human protein, large extracellular loop (LEL, Phe113-Lys201), Alexa Fluor 488-labeled (human, UniProt P60033 113-201, Alexa Fluor 488 dye (succinimidyl ester labeling)); assay: peptide or protein array; candidate peptides and control AAAA on cellulose membrane, blocked with 3% BSA; Alexa488-labeled CD81 at 50 nM to 1 µM, room temperature, 3 h; AAAA-subtracted spot intensity fitted to the Hill equation; estimated KD; conditions: both partners purified
T1 construct: two additional amino acids (Gly and Pro) at the N-terminus of the LEL; CD81, human, large extracellular loop (LEL), Phe113-Lys201; also called CD81 protein; CD81 LEL; source: bought: Sino Biological (Cat. No. 14244-HNCH); labeled with the Alexa Fluor 488 protein labeling kit
T1 sequence: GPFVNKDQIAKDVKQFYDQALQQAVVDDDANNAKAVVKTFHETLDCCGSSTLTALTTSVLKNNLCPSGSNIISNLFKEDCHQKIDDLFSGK

FMKRLRKR [Peptide P153, EWI-2-derived CD81-BP candidate, FMKRLRKR]
Spot fluorescence intensity on array (candidate selection) [1]: greater than the average (AVG) and two standard deviations (SD)
Migration of MDA-MB-231 cells vs non-treatment [2]: could significantly reduce the migration of MDA-MB-231 cells
Inhibition of migration compared with anti-human CD81 antibody 5A6 ([2]; 24 h): comparable or competitive to an anti-CD81 monoclonal human antibody (5A6)

ASRTYRLR [Peptide P97]
Spot fluorescence intensity on array (candidate selection) [1]: greater than the average (AVG) and two standard deviations (SD)
Migration of MDA-MB-231 cells vs non-treatment [2]: no distinct inhibition was observed

FRKCKMRL [Peptide P152-1, scrambled peptide of P152 (FRKCKMRL)]
Anti-migration activity, P152 vs scrambled peptides ([2]; 24 h): showed the impact on MDA-MB-23 cell migration as seemingly as the original P152; also recorded: only P152 origin showed statistical significance (p-value < 0.05)

KKRCRFLM [Peptide P152-2, scrambled peptide of P152 (KKRCRFLM)]
Anti-migration activity, P152 vs scrambled peptides ([2]; 24 h): only P152 origin showed statistical significance (p-value < 0.05)

B1: P153 (FMKRLRKR), EWI-2-derived eight-residue peptide (peptide)
peptide: FMKRLRKR
modifications: synthesized on a Fmoc-β-Alanine-activated cellulose membrane
notes: last eight residues of human EWI-2 (immunoglobulin superfamily member 8); also called CD81-BP candidate; source: synthetic peptide, spot-synthesized on cellulose membrane (peptide array)
Kd [3]: 12600 nM

B2: P152 (CFMKRLRK), EWI-2-derived eight-residue peptide (peptide)
peptide: CFMKRLRK
modifications: synthesized on a Fmoc-β-Alanine-activated cellulose membrane
notes: eight-residue stretch of human EWI-2 (immunoglobulin superfamily member 8), near the C-terminus; For the migration assay the peptide was made as a free powder on Rink amide resin; also called CD81-BP candidate; source: synthetic peptide, spot-synthesized on cellulose membrane (peptide array)
Kd [3]: 910 nM

B3: P97 (ASRTYRLR), EWI-2-derived eight-residue peptide (peptide)
peptide: ASRTYRLR
modifications: synthesized on a Fmoc-β-Alanine-activated cellulose membrane
notes: eight-residue stretch of human EWI-2 (immunoglobulin superfamily member 8), between the Ig3 domain and the C-terminus; For the migration assay the peptide was made as a free powder on Rink amide resin; also called CD81-BP candidate; source: synthetic peptide, spot-synthesized on cellulose membrane (peptide array)
Kd [3]: 1060 nM

B4: P132 (RSHRLRLH), EWI-2-derived eight-residue peptide (peptide)
peptide: RSHRLRLH
modifications: synthesized on a Fmoc-β-Alanine-activated cellulose membrane
notes: eight-residue stretch of human EWI-2 (immunoglobulin superfamily member 8), between the Ig3 domain and the C-terminus; also called CD81-BP candidate; source: synthetic peptide, spot-synthesized on cellulose membrane (peptide array)
Kd [3]: 1630 nM
